We go through 34 compounds from the NIST ThermoML archive (doi:10.1021/je100410k).

SMILES strings stand for the structures. Numbers after ± are expanded uncertainties.

One data set can be described thus: activity coefficient (dimensionless); of the first substance listed, at infinite dilution; xn = mol fraction of the nth substance listed. The note with it: 338.15 K; 101 kPa; Liquid; Chromatography; x1 = 0.
Turning to `CCCCCCC` [heptane] + CCCCn1cc[n+](C)c1.Cc1ccc(S(=O)(=O)[O-])cc1, the activity coefficient amounted to 48.1 ± 3.3.

As to `CCCCCC` [hexane] + CCCCn1cc[n+](C)c1.Cc1ccc(S(=O)(=O)[O-])cc1, the activity coefficient came out at 36.3 ± 2.5.

Still in this data set, the particulars now being: 338.2 K; 101 kPa; Liquid; Chromatography; x1 = 0.
For `Cc1ccccc1C` [1,2-dimethylbenzene] + CCCCn1cc[n+](C)c1.Cc1ccc(S(=O)(=O)[O-])cc1, the activity coefficient was 4.07 ± 0.28.

For the compound `Cc1cccc(C)c1` [1,3-dimethylbenzene] + CCCCn1cc[n+](C)c1.Cc1ccc(S(=O)(=O)[O-])cc1, the activity coefficient stood at 4.76 ± 0.32.

As for `Cc1ccc(C)cc1` [1,4-dimethylbenzene] + CCCCn1cc[n+](C)c1.Cc1ccc(S(=O)(=O)[O-])cc1, the activity coefficient is 4.73 ± 0.32.

On to `C=CCCCCC` [1-heptene] + CCCCn1cc[n+](C)c1.Cc1ccc(S(=O)(=O)[O-])cc1, for which the activity coefficient was found to be 24.2 ± 1.7.

Turning to `C#CCCCCC` [1-heptyne] + CCCCn1cc[n+](C)c1.Cc1ccc(S(=O)(=O)[O-])cc1, the activity coefficient turned out to be 5.13 ± 0.35.

Take `C#CCCCC` [1-hexyne] + CCCCn1cc[n+](C)c1.Cc1ccc(S(=O)(=O)[O-])cc1: the activity coefficient is 3.69 ± 0.25.

Take `C#CCCCCCC` [1-octyne] + CCCCn1cc[n+](C)c1.Cc1ccc(S(=O)(=O)[O-])cc1: the activity coefficient amounted to 7.12 ± 0.49.

As to `C=CCCC` [1-pentene] + CCCCn1cc[n+](C)c1.Cc1ccc(S(=O)(=O)[O-])cc1, the activity coefficient stood at 13.7 ± 0.9.

As to `COC(C)(C)C` [2-methoxy-2-methylpropane] + CCCCn1cc[n+](C)c1.Cc1ccc(S(=O)(=O)[O-])cc1, the activity coefficient is 8.28 ± 0.56.

Take `CC(C)=O` [acetone] + CCCCn1cc[n+](C)c1.Cc1ccc(S(=O)(=O)[O-])cc1: the activity coefficient amounted to 1.48 ± 0.1.

As to `c1ccccc1` [benzene] + CCCCn1cc[n+](C)c1.Cc1ccc(S(=O)(=O)[O-])cc1, the activity coefficient came out at 1.96 ± 0.13.

Take `C1CCCCCC1` [cycloheptane] + CCCCn1cc[n+](C)c1.Cc1ccc(S(=O)(=O)[O-])cc1: the activity coefficient was 17.7 ± 1.2.

Turning to `C1CCCCC1` [cyclohexane] + CCCCn1cc[n+](C)c1.Cc1ccc(S(=O)(=O)[O-])cc1, the activity coefficient was 16.3 ± 1.1.

Consider `C1CCCCCCC1` [cyclooctane] + CCCCn1cc[n+](C)c1.Cc1ccc(S(=O)(=O)[O-])cc1, for which the activity coefficient stood at 21.3 ± 1.5.

As to `C1CCCC1` [cyclopentane] + CCCCn1cc[n+](C)c1.Cc1ccc(S(=O)(=O)[O-])cc1, the activity coefficient is 11.3 ± 0.8.

Consider `CCCCCCCCCC` [decane] + CCCCn1cc[n+](C)c1.Cc1ccc(S(=O)(=O)[O-])cc1, for which the activity coefficient is 119 ± 8.1.

As to `CCOCC` [diethyl ether] + CCCCn1cc[n+](C)c1.Cc1ccc(S(=O)(=O)[O-])cc1, the activity coefficient is 6.57 ± 0.45.

Consider `CCCOCCC` [dipropyl ether] + CCCCn1cc[n+](C)c1.Cc1ccc(S(=O)(=O)[O-])cc1, for which the activity coefficient stood at 15.5 ± 1.1.

For the compound `CCO` [ethanol] + CCCCn1cc[n+](C)c1.Cc1ccc(S(=O)(=O)[O-])cc1, the activity coefficient was 0.359 ± 0.033.

In the case of `CCc1ccccc1` [ethylbenzene] + CCCCn1cc[n+](C)c1.Cc1ccc(S(=O)(=O)[O-])cc1, the activity coefficient was 4.45 ± 0.3.

On to `C=CCCCC` [hex-1-ene] + CCCCn1cc[n+](C)c1.Cc1ccc(S(=O)(=O)[O-])cc1, for which the activity coefficient is 18 ± 1.2.

Regarding `CO` [methanol] + CCCCn1cc[n+](C)c1.Cc1ccc(S(=O)(=O)[O-])cc1, the activity coefficient is 0.217 ± 0.029.

Turning to `CCCCCCCCC` [nonane] + CCCCn1cc[n+](C)c1.Cc1ccc(S(=O)(=O)[O-])cc1, the activity coefficient was 86.1 ± 5.9.

Regarding `C=CCCCCCC` [oct-1-ene] + CCCCn1cc[n+](C)c1.Cc1ccc(S(=O)(=O)[O-])cc1, the activity coefficient is 33.1 ± 2.3.

Take `CCCCCCCC` [octane] + CCCCn1cc[n+](C)c1.Cc1ccc(S(=O)(=O)[O-])cc1: the activity coefficient amounted to 63.9 ± 4.4.

Consider `CCCC(C)=O` [pentan-2-one] + CCCCn1cc[n+](C)c1.Cc1ccc(S(=O)(=O)[O-])cc1, for which the activity coefficient worked out at 2.68 ± 0.18.

As to `CCC(=O)CC` [pentan-3-one] + CCCCn1cc[n+](C)c1.Cc1ccc(S(=O)(=O)[O-])cc1, the activity coefficient was 2.68 ± 0.18.

Regarding `CCCO` [propan-1-ol] + CCCCn1cc[n+](C)c1.Cc1ccc(S(=O)(=O)[O-])cc1, the activity coefficient was found to be 0.437 ± 0.035.

In the case of `C1CCOC1` [tetrahydrofuran] + CCCCn1cc[n+](C)c1.Cc1ccc(S(=O)(=O)[O-])cc1, the activity coefficient came to 1.88 ± 0.13.

`c1ccsc1` [thiophene] + CCCCn1cc[n+](C)c1.Cc1ccc(S(=O)(=O)[O-])cc1: the activity coefficient was 1.11 ± 0.07.

As to `Cc1ccccc1` [toluene] + CCCCn1cc[n+](C)c1.Cc1ccc(S(=O)(=O)[O-])cc1, the activity coefficient stood at 3.03 ± 0.21.

For the compound `O` [water] + CCCCn1cc[n+](C)c1.Cc1ccc(S(=O)(=O)[O-])cc1, the activity coefficient is 0.191 ± 0.029.

Still in this data set, the particulars now being: 348.15 K; 101 kPa; Liquid; Chromatography; x1 = 0.
With `CCCCCCC` [heptane] + CCCCn1cc[n+](C)c1.Cc1ccc(S(=O)(=O)[O-])cc1, the activity coefficient came out at 42.2 ± 2.9.

As for `CCCCCC` [hexane] + CCCCn1cc[n+](C)c1.Cc1ccc(S(=O)(=O)[O-])cc1, the activity coefficient stood at 31.5 ± 2.2.

The data set is the same for the next values; noted with them: 348.2 K; 101 kPa; Liquid; Chromatography; x1 = 0.
As to `Cc1ccccc1C` [1,2-dimethylbenzene] + CCCCn1cc[n+](C)c1.Cc1ccc(S(=O)(=O)[O-])cc1, the activity coefficient is 4.01 ± 0.27.

As for `Cc1cccc(C)c1` [1,3-dimethylbenzene] + CCCCn1cc[n+](C)c1.Cc1ccc(S(=O)(=O)[O-])cc1, the activity coefficient is 4.67 ± 0.32.

As for `Cc1ccc(C)cc1` [1,4-dimethylbenzene] + CCCCn1cc[n+](C)c1.Cc1ccc(S(=O)(=O)[O-])cc1, the activity coefficient amounted to 4.64 ± 0.32.

Turning to `C=CCCCCC` [1-heptene] + CCCCn1cc[n+](C)c1.Cc1ccc(S(=O)(=O)[O-])cc1, the activity coefficient turned out to be 22.5 ± 1.5.

With `C#CCCCCC` [1-heptyne] + CCCCn1cc[n+](C)c1.Cc1ccc(S(=O)(=O)[O-])cc1, the activity coefficient was found to be 5.23 ± 0.36.

For `C#CCCCC` [1-hexyne] + CCCCn1cc[n+](C)c1.Cc1ccc(S(=O)(=O)[O-])cc1, the activity coefficient worked out at 3.78 ± 0.26.

On to `C#CCCCCCC` [1-octyne] + CCCCn1cc[n+](C)c1.Cc1ccc(S(=O)(=O)[O-])cc1, for which the activity coefficient worked out at 7.28 ± 0.5.

As for `C=CCCC` [1-pentene] + CCCCn1cc[n+](C)c1.Cc1ccc(S(=O)(=O)[O-])cc1, the activity coefficient was 12.6 ± 0.9.

On to `COC(C)(C)C` [2-methoxy-2-methylpropane] + CCCCn1cc[n+](C)c1.Cc1ccc(S(=O)(=O)[O-])cc1, for which the activity coefficient stood at 7.84 ± 0.53.

As to `CC(C)=O` [acetone] + CCCCn1cc[n+](C)c1.Cc1ccc(S(=O)(=O)[O-])cc1, the activity coefficient worked out at 1.46 ± 0.1.

On to `c1ccccc1` [benzene] + CCCCn1cc[n+](C)c1.Cc1ccc(S(=O)(=O)[O-])cc1, for which the activity coefficient was found to be 1.93 ± 0.13.

`C1CCCCCC1` [cycloheptane] + CCCCn1cc[n+](C)c1.Cc1ccc(S(=O)(=O)[O-])cc1: the activity coefficient came out at 16.3 ± 1.1.

In the case of `C1CCCCC1` [cyclohexane] + CCCCn1cc[n+](C)c1.Cc1ccc(S(=O)(=O)[O-])cc1, the activity coefficient came out at 14.6 ± 1.

In the case of `C1CCCCCCC1` [cyclooctane] + CCCCn1cc[n+](C)c1.Cc1ccc(S(=O)(=O)[O-])cc1, the activity coefficient was found to be 19.7 ± 1.3.

Turning to `C1CCCC1` [cyclopentane] + CCCCn1cc[n+](C)c1.Cc1ccc(S(=O)(=O)[O-])cc1, the activity coefficient was 9.9 ± 0.7.

Regarding `CCCCCCCCCC` [decane] + CCCCn1cc[n+](C)c1.Cc1ccc(S(=O)(=O)[O-])cc1, the activity coefficient came to 106 ± 7.3.

Take `CCOCC` [diethyl ether] + CCCCn1cc[n+](C)c1.Cc1ccc(S(=O)(=O)[O-])cc1: the activity coefficient was 6.36 ± 0.43.

For `CCCOCCC` [dipropyl ether] + CCCCn1cc[n+](C)c1.Cc1ccc(S(=O)(=O)[O-])cc1, the activity coefficient was 15.2 ± 1.

On to `CCO` [ethanol] + CCCCn1cc[n+](C)c1.Cc1ccc(S(=O)(=O)[O-])cc1, for which the activity coefficient was 0.357 ± 0.033.

For `CCc1ccccc1` [ethylbenzene] + CCCCn1cc[n+](C)c1.Cc1ccc(S(=O)(=O)[O-])cc1, the activity coefficient is 4.4 ± 0.3.

In the case of `C=CCCCC` [hex-1-ene] + CCCCn1cc[n+](C)c1.Cc1ccc(S(=O)(=O)[O-])cc1, the activity coefficient was 16.6 ± 1.1.

As to `CO` [methanol] + CCCCn1cc[n+](C)c1.Cc1ccc(S(=O)(=O)[O-])cc1, the activity coefficient is 0.219 ± 0.029.

For `CCCCCCCCC` [nonane] + CCCCn1cc[n+](C)c1.Cc1ccc(S(=O)(=O)[O-])cc1, the activity coefficient stood at 77.5 ± 5.3.

In the case of `C=CCCCCCC` [oct-1-ene] + CCCCn1cc[n+](C)c1.Cc1ccc(S(=O)(=O)[O-])cc1, the activity coefficient was 31 ± 2.1.

With `CCCCCCCC` [octane] + CCCCn1cc[n+](C)c1.Cc1ccc(S(=O)(=O)[O-])cc1, the activity coefficient was 57.7 ± 4.

Consider `CCCC(C)=O` [pentan-2-one] + CCCCn1cc[n+](C)c1.Cc1ccc(S(=O)(=O)[O-])cc1, for which the activity coefficient came to 2.64 ± 0.18.

Consider `CCC(=O)CC` [pentan-3-one] + CCCCn1cc[n+](C)c1.Cc1ccc(S(=O)(=O)[O-])cc1, for which the activity coefficient came out at 2.65 ± 0.18.

Take `CCCO` [propan-1-ol] + CCCCn1cc[n+](C)c1.Cc1ccc(S(=O)(=O)[O-])cc1: the activity coefficient was determined as 0.434 ± 0.035.

Take `C1CCOC1` [tetrahydrofuran] + CCCCn1cc[n+](C)c1.Cc1ccc(S(=O)(=O)[O-])cc1: the activity coefficient is 1.87 ± 0.13.

As for `c1ccsc1` [thiophene] + CCCCn1cc[n+](C)c1.Cc1ccc(S(=O)(=O)[O-])cc1, the activity coefficient was 1.13 ± 0.07.

As to `Cc1ccccc1` [toluene] + CCCCn1cc[n+](C)c1.Cc1ccc(S(=O)(=O)[O-])cc1, the activity coefficient amounted to 3.01 ± 0.2.

Regarding `O` [water] + CCCCn1cc[n+](C)c1.Cc1ccc(S(=O)(=O)[O-])cc1, the activity coefficient stood at 0.196 ± 0.029.
